Experimental data: US9694072B2, “Methods for diagnosing and treating neuroendocrine cancer” (Trustees of Dartmouth College, priority 2005, dated 2017)
Structures can show the parent of a compound that is named as a salt. Where two headings read alike, the source gives them in different places.

Experiments:
[1] = tested on: MCF-7 breast cancer cells; test: Alamar Blue growth/proliferation study; format: cell-based, human; conditions: MCF-7, NMDAR1 antagonist treatment
[2] = tested on: SKBr3 breast cancer cells; test: Alamar Blue growth/proliferation study; format: cell-based, human; conditions: SKBr3, NMDAR1 antagonist treatment
Experimental: Results represent triplicate studies performed with Alamar Blue on LAN2 neuroblastoma, MCF-7 breast cancer, and SKBr3 breast cancer cells examining the growth influence of 1 mM glutamate in the presence of glycine over 24 hours.
Results represent triplicate studies performed with Alamar Blue on LAN2 neuroblastoma, MCF-7 breast cancer, and SKBr3 breast cancer cells examining the growth influence of 100 mM Mg^++ in the presence of glycine over 24 hours.

[3] = tested on: NCI-H345 classical SCLC cells; test: Cell growth/viability assay (Alamar Blue); conditions: for IC50: Homo sapiens
Experimental: Cultures of NCI-H345, NCI-H146, DMS-53 cells (classical cell lines), and NCI-H82 cells (variant cell line) were treated with 0.05% trypsin, washed in phosphate buffered saline (PBS)/glycine and plated onto 96-well plates at 10^4 cells/well in medium for 24 hours to provide time for rectifying possible damage to membrane proteins from the trypsinization. The wells were washed and incubated with PBS/glycine containing albumin (1.25 mg/mL) in the presence or absence of different concentrations (25 μM-800 μM) of either the NMDAR 1 antagonists, Memantine or MK-801; or the NMDAR2B antagonists Ifenprodil and Ro 25-6981 (binders to the polyamine site), or the NMDAR2B antagonists L-701,252 and L-701,324 (binders to the glycine site), or vehicle; and Alamar Blue (1:10 dilution following manufacturer's recommendation). Fluorescent readings were taken at periods representing 24, 48, and 72 hours of incubation with antagonist using a Synergy HT Multi-Detection Microplate Reader and excitation/emission wavelengths of 530 nm and 590 nm. Cell viability was evaluated as % vehicle control at the corresponding incubation time.
This peptide domain is represented in that portion of the mRNA message sequenced by RT-PCR. For studies on cell proliferation, the IgGs of this antiserum were first isolated by precipitation with 50% saturated ammonium sulfate, and antibodies purified from these immunoglobulins by affinity chromatography using a column containing the peptide component of the above antigen coupled to SEPHAROSE (Friedmann, et al. (1994) supra; Keegan, et al. (2002) supra).

[4] = tested on: NCI-H82 variant SCLC cells; test: Cell growth/viability assay (Alamar Blue); format: cell-based, human; conditions: for IC50: Homo sapiens
Experimental: (§1) Cultures of NCI-H345, NCI-H146, DMS-53 cells (classical cell lines), and NCI-H82 cells (variant cell line) were treated with 0.05% trypsin, washed in phosphate buffered saline (PBS)/glycine and plated onto 96-well plates at 10^4 cells/well in medium for 24 hours to provide time for rectifying possible damage to membrane proteins from the trypsinization. […] Fluorescent readings were taken at periods representing 24, 48, and 72 hours of incubation with antagonist using a Synergy HT Multi-Detection Microplate Reader and excitation/emission wavelengths of 530 nm and 590 nm. Cell viability was evaluated as % vehicle control at the corresponding incubation time.

NCI-H146 cells = test: Cell growth/viability assay (Alamar Blue); format: cell-based, human; conditions: Homo sapiens, NCI-H146, 48 h, read-out: IC50, cell viability
Experimental: as §1

DMS-53 cells = test: Cell growth/viability assay (Alamar Blue); format: cell-based, human; conditions: Homo sapiens, DMS-53, 48 h, read-out: IC50, cell viability
Experimental: as §1

[5] = tested on: SCLC NCI-H345 tumor xenografts; test: Treatment of SCLC tumor xenografts in mice; format: in vivo, nu/nu mice
Text: Human tumor xenografts of small cell lung cancer (SCLC) cell line NCI-H345 were raised in nu/nu mice, and the influence of the NMDAR1 receptor antagonist dizocilpine maleate (MK-801) then examined on established tumor growth measured by multiplying depth, width, and length determined using a micrometer. Tumor growth in a control group of animals receiving i.p. PBS vehicle (n=4) was compared to tumor growth in animals (n=4) receiving dizocilpine maleate (MK-801) over 10 days. Animals received an escalating single dose of this NMDAR1 antagonist from 0.1 mg/Kg body weight each day for days 0-2, then to a single dose of 0.2 mg/Kg body weight each day for days 3-6, then to a single dose of 0.3 mg/Kg body weight each day for days 7-8. Finally two daily doses of 0.3 mg/Kg body weight were given for days 8-10.
Results were analyzed by Analysis of Variance and the Student-Neuman-Kuels test. Longitudinal growth data was evaluated using repeated measures ANOVA. Significant was determined to be present for p<0.05.

[6] = tested on: Ovarian A2780 and A2008 cancer cells; test: Ovarian cancer cell growth (Alamar Blue); format: cell-based, human
Experimental: Ovarian A2780 and A2008 cancer cells were plated in 96 well plates at 1-2×10^4 cells/well. […] Alamar Blue was later added to each well following an incubation period, and fluorescent readings taken at excitation 530-560 nm and emission of 590 nm and above on a SYNERGY HT Multi Detection Reader. […] Significance was p<0.001 for 400 to 900 μM of MK-801. […] These findings indicate both NMDAR antagonists and anti-NMDA receptor monoclonal antibodies would be of use as effective inhibitors of ovarian tumor xenografts in mice.

[7] = tested on: LNCAP prostate cancer cells; test: Prostate cancer cell viability (Alamar Blue); format: cell-based, human
Experimental: To determine the effects of NMDAR1 antibodies on prostate cell viability, LNCAP prostate cancer cells were plated in 96 well plates at 1-2×10^4 cells/well. […] Alamar Blue was later added to each well following an incubation period, and fluorescent readings taken at excitation 530-560 nm and emission 590 nm and above on a SYNERGY HT Multi Detection Reader.

[8] = tested on: Human tumor xenografts of breast cancer cells; test: Breast cancer xenografts treated with anti-NMDAR1 antibodies; set-up: species or system nu/nu mice; conditions: mouse
Experimental: Human tumor xenografts of breast cancer cells were raised in nu/nu mice, and the influence of anti-NMDAR1 polyclonal antibodies then examined on tumor growth. For antibody studies, growth in a control group (n=4) was compared to tumor growth in animals (n=4) receiving 50 ng of Protein A-isolated, antibody-containing, IgG once each day for 15 days. Tumor was then measured for an […]. While control tumors grew to >20 times their original size, tumors treated with anti-NMDAR1 antibodies shrank to <50% original size and remained at this shrunken size for the duration of treatment (p<<0.0001)(FIG. 7). Tumor size then began very slowly to rise but even 20 days later they were only back to original size (100%). Values are expressed as a percentage of tumor size at day 0 (+/−SEM).

[9] = tested on: SKBr3 breast cancer cells; test: Alamar Blue growth/proliferation study; format: cell-based, human

C[C@]12N[C@H](Cc3ccccc31)c1ccccc12 [MK-801, dizocilpine maleate]
effect on proliferation (in words) [1]: decrease proliferation | effect on proliferation (in words) [2]: decrease proliferation | IC50 ([3]; NCI-H345, 48 h, read-out: IC50, cell viability): 300 µM | IC50 ([3]; NCI-H345, read-out: IC50, cell viability): ~200 µM | Cell viability reduced to ([3]; NCI-H345, 24, 48, and 72 hours incubation): about 10 % of control | IC50 ([4]; NCI-H82, 48 h, read-out: IC50, cell viability): 300 µM | IC50 ([4]; NCI-H82, read-out: IC50, cell viability): ~200 µM | Cell viability reduced to ([4]; NCI-H82, 24, 48, and 72 hours incubation): about 10 % of control | IC50 (NCI-H146 cells): 650 µM | IC50 (DMS-53 cells): > 800 µM | behavioral effects in the animals ([5]; MK-801 at the dose indicated): no noticeable behavioral effects | well-being as exemplified by body weight ([5]; MK-801 at the dose indicated): no apparent effect on their well-being | Growth of small-cell tumors (in words) ([5]; escalating doses from 0.1 mg/kg once daily to 0.3 mg/kg twice daily): significantly (p<0.0001) reduced | rate of tumor growth reduced to ([5]; i.p., escalating 0.1 to 0.3 mg/Kg over 10 days): ~60 % that of controls | reduction in fluorescent units ([6]; at 500, 600, 700, 800, and 900 μM compared to 100, 200 and 400 μM): more than 50% | effect on cell growth (in words) ([6]; ovarian cancer cells, Alamar Blue): dramatic reductions in cell growth | effect on cell growth/viability (in words) [7]: significance in reductions was p<0.001 for 400 to 900 μM | growth of breast cancer tumors in vivo (in words) [8]: completely inhibited growth of these tumors in vivo | Proliferation of SKBr3 Cells Percent Fluorescence Compared to Control ([9]; 100 μM, 24 Hours): 92.29 ± 6.82% | Proliferation of SKBr3 Cells Percent Fluorescence Compared to Control ([9]; 100 μM, 48 Hours): 91.74 ± 2.94% | Proliferation of SKBr3 Cells Percent Fluorescence Compared to Control ([9]; 100 μM, 72 Hours): 95.06 ± 1.22% | Proliferation of SKBr3 Cells Percent Fluorescence Compared to Control ([9]; 200 μM, 24 Hours): 89.47 ± 5.77% | Proliferation of SKBr3 Cells Percent Fluorescence Compared to Control ([9]; 200 μM, 48 Hours): 89.35 ± 2.83% | Proliferation of SKBr3 Cells Percent Fluorescence Compared to Control ([9]; 200 μM, 72 Hours): 93.24 ± 1.68% | Proliferation of SKBr3 Cells Percent Fluorescence Compared to Control ([9]; 300 μM, 24 Hours): 84.39 ± 5.01% | Proliferation of SKBr3 Cells Percent Fluorescence Compared to Control ([9]; 300 μM, 48 Hours): 83.79 ± 2.71% | Proliferation of SKBr3 Cells Percent Fluorescence Compared to Control ([9]; 300 μM, 72 Hours): 88.97 ± 2.04% | Proliferation of SKBr3 Cells Percent Fluorescence Compared to Control ([9]; 400 μM, 24 Hours): 75.17 ± 4.67% | Proliferation of SKBr3 Cells Percent Fluorescence Compared to Control ([9]; 400 μM, 48 Hours): 70.62 ± 2.34% | Proliferation of SKBr3 Cells Percent Fluorescence Compared to Control ([9]; 400 μM, 72 Hours): 77.08 ± 2.78% | Proliferation of SKBr3 Cells Percent Fluorescence Compared to Control ([9]; 500 μM, 24 Hours): 65.50 ± 3.74% | Proliferation of SKBr3 Cells Percent Fluorescence Compared to Control ([9]; 500 μM, 48 Hours): 59.07 ± 2.49% | Proliferation of SKBr3 Cells Percent Fluorescence Compared to Control ([9]; 500 μM, 72 Hours): 67.02 ± 5.13% | Proliferation of SKBr3 Cells Percent Fluorescence Compared to Control ([9]; 600 μM, 24 Hours): 58.06 ± 3.00% | Proliferation of SKBr3 Cells Percent Fluorescence Compared to Control ([9]; 600 μM, 48 Hours): 50.59 ± 2.34% | Proliferation of SKBr3 Cells Percent Fluorescence Compared to Control ([9]; 600 μM, 72 Hours): 52.57 ± 2.28% | Proliferation of SKBr3 Cells Percent Fluorescence Compared to Control ([9]; 700 μM, 24 Hours): 51.97 ± 2.77% | Proliferation of SKBr3 Cells Percent Fluorescence Compared to Control ([9]; 700 μM, 48 Hours): 43.84 ± 3.41% | Proliferation of SKBr3 Cells Percent Fluorescence Compared to Control ([9]; 700 μM, 72 Hours): 44.88 ± 3.40% | Proliferation of SKBr3 Cells Percent Fluorescence Compared to Control ([9]; 800 μM, 24 Hours): 43.27 ± 2.50% | Proliferation of SKBr3 Cells Percent Fluorescence Compared to Control ([9]; 800 μM, 48 Hours): 33.77 ± 4.19% | Proliferation of SKBr3 Cells Percent Fluorescence Compared to Control ([9]; 800 μM, 72 Hours): 33.91 ± 4.35% | Proliferation of SKBr3 Cells Percent Fluorescence Compared to Control ([9]; 900 μM, 24 Hours): 35.73 ± 2.66% | Proliferation of SKBr3 Cells Percent Fluorescence Compared to Control ([9]; 900 μM, 48 Hours): 25.48 ± 5.92% | Proliferation of SKBr3 Cells Percent Fluorescence Compared to Control ([9]; 900 μM, 72 Hours): 25.21 ± 5.96% | reduced proliferation by ([9]; SKBr3, 0.9 mM, 72 hours): about 80%
